Holding throughout (experiment): NCI tumour cell line growth inhibition, 48 h
Assay [1] relates to BT-549 breast.
Assay [2] concerns LXFL 529 NSCLC.
The test system of assay [3] is MDA-MB-231 breast.
Assay [4] deals with MDA-MB-435.
Assay [5] concerns MDA-N.
Assay [6] concerns T-47D breast.
Assay [7] deals with P388 leukemia.
The subject of assay [8] is SN12K1 renal.
For assay [9], the system named is RXF-631 renal.
Assay [10] concerns P388/ADR leukemia.

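Protocol summary: plate cells (96-well), add compound at 5 concentrations, incubate 48 h, interpolate endpoints linearly. TGI denotes the concentration required for complete inhibition of growth.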

`C=C1C(=O)OC2/C=C(\CO)C3OC3C3OC3(C)CC(OC(=O)/C(=C/C)COC(C)=O)C12` (stereo not drawn): the TGI in assay [1] is 3.48 µM; in assay [2], 2.17 µM; in assay [3], 19.5 µM; in [4], 7.88 µM; in [5], 13 µM; in assay [6] it was 9.7 µM.

Regarding `O=C1Nc2ccccc2C1(O)Cc1ccccn1` (stereo not drawn), the TGI in assay [1], in assay [3], in assay [4], in assay [5] and in [6] was greater than 100 µM each time.

Regarding `CSc1nc2c(ncn2C2OC(CO)C(O)C(O)C2O)c(=O)n1C` (stereo not drawn), the TGI in assay [7] and in assay [8] was greater than 100 µM each time.

As for `COc1ccc2[nH]c(=O)cc(C)c2c1[N+](=O)[O-]`, the TGI in [2] and in assay [9] was greater than 100 µM each time.

`O=c1c2cc([N+](=O)[O-])ccc2[nH]n1Cc1ccccc1Cl`: the TGI in assay [3], in assay [4] and in assay [5] was greater than 100 µM in each case.

In the case of `Nc1nc2cc(COc3ccc(C(=O)O)cc3)ccc2nc1-c1ccccc1`, the TGI in assay [3], in assay [4], in assay [5] and in assay [6] was greater than 10 µM throughout.

For the molecule `Cc1c2cnccc2c(C)c2c1c1ccccc1n2CCCCCCCl`, the results for the TGI in assay [7], in [10] and in [8] were 32.6 µM, greater than 50 µM and greater than 50 µM, respectively.

In the case of `CC1=CC2=C(C=O)C(=O)[C@](C)(O)[C@@H](O)C2=CO1`, the TGI in assay [7] was 35.5 µM; in assay [10], 33.8 µM; in [8] it was greater than 100 µM.

Turning to `CS(C)(=O)=Nn1c(=O)n2n(c1=O)[C@H]1CC[C@@H]2C1`, the TGI in assay [3], in [4], in [5] and in [6] was greater than 100 µM in each case.

In the case of `COc1cc(C2c3cc4c(cc3[C@@H](Nc3cnc5ccccc5c3)C3COC(=O)[C@H]23)OCO4)cc(OC)c1O` (stereo partly drawn), the TGI in assay [7] amounted to 0.374 µM; in assay [10], 1.36 µM; in assay [8], 2.08 µM.

In the case of `O=C1Sc2sc(=S)sc2SC1c1ccccc1` (stereo not drawn), the TGI in assay [7] is greater than 67.2 µM; in assay [10], greater than 67.7 µM; in assay [8] it was greater than 65.2 µM.

Values taken from PubChem BioAssay (NCI).
